The record followed here is ChEMBL document CHEMBL3880421, “Indazole compounds and pharmaceutical compositions for inhibiting protein kinases, and methods for their use” (2003).

A word on the inhibition: it is the change of the read-out against control, counted positive when it falls.

This assay can be described thus: Antiproliferative activity against VEGF-stimulated HUVEC cells assessed as reduction in cell viability at 10 nM preincubated for 1 hr followed by addition of VEGF measured after 72 hrs by MTT assay. The note with it: Homo sapiens. The class given is functional.
Turning to `O=C(/C=C/C1C[C@H]2C=C[C@H]1C2)Nc1cccc(C(=O)c2ccc3c(/C=C/c4ccccc4)n[nH]c3c2)c1` (some centres not stated), the inhibition at 0.01 µM was 37%.

For `O=C(CC1=CCCCC1)Nc1cccc(Nc2ccc3c(/C=C/c4ccccc4)n[nH]c3c2)c1`, the inhibition at 0.01 µM amounted to 81%.

On to `O=C(Nc1cccc(Oc2ccc3c(/C=C/c4ccccc4)n[nH]c3c2)c1)C1CC2C=CC1CC2` (configuration not stated), for which the inhibition at 0.01 µM is 13%.

For the compound `CC(C)(C)c1ccc(C(=O)Nc2cccc(Nc3ccc4c(/C=C/c5ccccc5)n[nH]c4c3)c2)o1`, the inhibition at 0.01 µM stood at 60%.

Consider `O=C(Nc1cccc(Nc2ccc3c(/C=C/c4ccccc4)n[nH]c3c2)c1)C(=O)C1=CCCCC1`, for which the inhibition at 0.01 µM came to 23%.

Take `O=C(Cn1ccc2ccccc21)Nc1cccc(Oc2ccc3c(/C=C/c4ccccc4)n[nH]c3c2)c1`: the inhibition at 0.01 µM is 52%.

On to `Cc1cc(C(=O)Nc2cccc(Nc3ccc4c(/C=C/c5ccccc5)n[nH]c4c3)c2)n[nH]1`, for which the inhibition at 0.01 µM is 86%.

Take `Cc1cc(C(=O)Nc2cccc(Oc3ccc4c(/C=C/c5ccccc5)n[nH]c4c3)c2)c(C)[nH]1`: the inhibition at 0.01 µM stood at 52%.

Regarding `CC(C)C(=O)Nc1cccc(Oc2ccc3c(/C=C/c4ccccc4)n[nH]c3c2)c1`, the inhibition at 0.01 µM is 57%.

On to `CC1(C)OC(=O)CC1C(=O)Nc1cccc(Oc2ccc3c(/C=C/c4ccccc4)n[nH]c3c2)c1` (configuration not stated), for which the inhibition at 0.01 µM amounted to 25%.

As to `O=C(Nc1cccc(Oc2ccc3c(/C=C/c4ccccc4)n[nH]c3c2)c1)C1CCOC1` (configuration not stated), the inhibition at 0.01 µM worked out at 40%.

With `CN1CCC=C(C(=O)Nc2cccc(Oc3ccc4c(/C=C/c5ccccc5)n[nH]c4c3)c2)C1`, the inhibition at 0.01 µM stood at 43%.

For the compound `O=C(CCC(=O)N1CCCC1)Nc1cccc(Nc2ccc3c(/C=C/c4ccccc4)n[nH]c3c2)c1`, the inhibition at 0.01 µM is -8%.

Regarding `O=C(Cc1cc(F)ccc1F)Nc1cccc(Nc2ccc3c(/C=C/c4ccccc4)n[nH]c3c2)c1`, the inhibition at 0.01 µM was 64%.

In the case of `O=C(/C=C/C(=O)Nc1cccc(Oc2ccc3c(/C=C/c4ccccc4)n[nH]c3c2)c1)NCC1CC1`, the inhibition at 0.01 µM came out at 36%.

For `CC(C)[C@@H](O)C(=O)Nc1cccc(Nc2ccc3c(/C=C/c4ccccc4)n[nH]c3c2)c1`, the inhibition at 0.01 µM was 3%.

With `Cc1cc(C(=O)Nc2cccc(C(=O)c3ccc4c(/C=C/c5ccccc5)n[nH]c4c3)c2)oc(=O)c1`, the inhibition at 0.01 µM was found to be 64%.

On to `O=C(Nc1cccc(C(=O)c2ccc3c(/C=C/c4ccccc4)n[nH]c3c2)c1)c1ccc(=O)oc1`, for which the inhibition at 0.01 µM was -62%.

On to `O=C(Nc1cccc(Nc2ccc3c(/C=C/c4ccccc4)n[nH]c3c2)c1)C1CCCO1` (configuration not stated), for which the inhibition at 0.01 µM was 23%.

With `O=C(CC1CC2CCC1C2)Nc1cccc(Nc2ccc3c(/C=C/c4ccccc4)n[nH]c3c2)c1` (configuration not stated), the inhibition at 0.01 µM was 87%.

For `O=C(Cc1cc(F)ccc1F)Nc1cccc(C(=O)c2ccc3c(/C=C/c4ccccc4)n[nH]c3c2)c1`, the inhibition at 0.01 µM came out at 80%.

`Cc1nc(S)sc1CC(=O)Nc1cccc(Nc2ccc3c(/C=C/c4ccccc4)n[nH]c3c2)c1`: the inhibition at 0.01 µM was 19%.

Turning to `COc1cccc(/C=C/C(=O)Nc2cccc(C(=O)c3ccc4c(/C=C/c5ccccc5)n[nH]c4c3)c2)c1`, the inhibition at 0.01 µM was determined as 35%.

Consider `O=C(c1cccc(NC(=O)C2CC3CC(O)C2C3)c1)c1ccc2c(/C=C/c3ccccc3)n[nH]c2c1` (configuration not stated), for which the inhibition at 0.01 µM came to 64%.

On to `O=C(CCN1CCCCC1)Nc1cccc(Oc2ccc3c(/C=C/c4ccccc4)n[nH]c3c2)c1`, for which the inhibition at 0.01 µM stood at 52%.

Take `CN(C)CCCC(=O)Nc1cccc(Nc2ccc3c(/C=C/c4ccccc4)n[nH]c3c2)c1`: the inhibition at 0.01 µM was determined as 30%.

On to `O=C1CC[C@H](C(=O)Nc2cccc(Oc3ccc4c(/C=C/c5ccccc5)n[nH]c4c3)c2)N1`, for which the inhibition at 0.01 µM turned out to be 32%.

As for `O=C1NCC(C(=O)Nc2cccc(Oc3ccc4c(/C=C/c5ccccc5)n[nH]c4c3)c2)N1` (configuration not stated), the inhibition at 0.01 µM stood at 40%.

`O=C(/C=C/C(=O)Nc1cccc(C(=O)c2ccc3c(/C=C/c4ccccc4)n[nH]c3c2)c1)NCC1CC1`: the inhibition at 0.01 µM stood at 3%.

Turning to `O=C(/C=C/C1C[C@H]2C=C[C@H]1C2)Nc1cccc(Oc2ccc3c(/C=C/c4ccccc4)n[nH]c3c2)c1` (some centres not stated), the inhibition at 0.01 µM was 48%.

As for `O=C1CCC(C(=O)Nc2cccc(Oc3ccc4c(/C=C/c5ccccc5)n[nH]c4c3)c2)CC1`, the inhibition at 0.01 µM worked out at 59%.

For `O=C(CCN1CCCCC1)Nc1cccc(C(=O)c2ccc3c(/C=C/c4ccccc4)n[nH]c3c2)c1`, the inhibition at 0.01 µM stood at 2%.

For the compound `CO[C@H](C(=O)Nc1cccc(Oc2ccc3c(/C=C/c4ccccc4)n[nH]c3c2)c1)c1ccccc1`, the inhibition at 0.01 µM turned out to be 30%.

`CC(=O)N1CCC(C(=O)Nc2cccc(C(=O)c3ccc4c(/C=C/c5ccccc5)n[nH]c4c3)c2)CC1`: the inhibition at 0.01 µM is 33%.

Consider `Cc1cc(C(=O)Nc2cccc(C(=O)c3ccc4c(/C=C/c5ccccc5)n[nH]c4c3)c2)no1`, for which the inhibition at 0.01 µM was determined as 50%.

As to `CC(C)c1ccccc1C(=O)Nc1cccc(C(=O)c2ccc3c(/C=C/c4ccccc4)n[nH]c3c2)c1`, the inhibition at 0.01 µM is 51%.

As to `CC1(C)OC(=O)CC1C(=O)Nc1cccc(C(=O)c2ccc3c(/C=C/c4ccccc4)n[nH]c3c2)c1` (configuration not stated), the inhibition at 0.01 µM worked out at 5%.

As for `CC1(C)C(C(=O)Nc2cccc(C(=O)c3ccc4c(/C=C/c5ccccc5)n[nH]c4c3)c2)C1(C)C`, the inhibition at 0.01 µM was 51%.

Consider `CC(=O)N1CCC(C(=O)Nc2cccc(Nc3ccc4c(/C=C/c5ccccc5)n[nH]c4c3)c2)CC1`, for which the inhibition at 0.01 µM is 13%.

As for `O=C(Cc1cccnc1)Nc1cccc(Nc2ccc3c(/C=C/c4ccccc4)n[nH]c3c2)c1`, the inhibition at 0.01 µM came to 43%.

As to `CC(C)[C@@H](O)C(=O)Nc1cccc(C(=O)c2ccc3c(/C=C/c4ccccc4)n[nH]c3c2)c1`, the inhibition at 0.01 µM worked out at 33%.

For the compound `O=C(Nc1cccc(Oc2ccc3c(/C=C/c4ccccc4)n[nH]c3c2)c1)C1CCCO1` (configuration not stated), the inhibition at 0.01 µM was determined as 51%.

Turning to `O=C(Nc1cccc(Nc2ccc3c(/C=C/c4ccccc4)n[nH]c3c2)c1)C1CC2C=CC1CC2` (configuration not stated), the inhibition at 0.01 µM came to 6%.

Consider `C/C(=C\C(=O)Nc1cccc(C(=O)c2ccc3c(/C=C/c4ccccc4)n[nH]c3c2)c1)c1ccccc1C`, for which the inhibition at 0.01 µM is 99%.

As to `C[C@@H](CC(=O)Nc1cccc(Oc2ccc3c(/C=C/c4ccccc4)n[nH]c3c2)c1)c1ccccc1`, the inhibition at 0.01 µM stood at 42%.

In the case of `O=C(Nc1cccc(Nc2ccc3c(/C=C/c4ccccc4)n[nH]c3c2)c1)C1=C[C@@H](O)[C@@H](O)[C@H](O)C1`, the inhibition at 0.01 µM amounted to 6%.

In the case of `Cc1cc(C(=O)Nc2cccc(Nc3ccc4c(/C=C/c5ccccc5)n[nH]c4c3)c2)oc(=O)c1`, the inhibition at 0.01 µM is -8%.

For `O=C(Nc1cccc(Oc2ccc3c(/C=C/c4ccccc4)n[nH]c3c2)c1)c1ccc(=O)oc1`, the inhibition at 0.01 µM was 5%.

As for `CC(=O)N1CCCC1C(=O)Nc1cccc(Oc2ccc3c(/C=C/c4ccccc4)n[nH]c3c2)c1` (configuration not stated), the inhibition at 0.01 µM was found to be 19%.

In the case of `Cc1cc(C(=O)Nc2cccc(Nc3ccc4c(/C=C/c5ccccc5)n[nH]c4c3)c2)nn1C`, the inhibition at 0.01 µM amounted to 95%.

For `O=C(Nc1cccc(Nc2ccc3c(/C=C/c4ccccc4)n[nH]c3c2)c1)C1C[C@H]2C=C[C@H]1C2` (some centres not stated), the inhibition at 0.01 µM was 5%.

Regarding `CC(C)(C)[C@@H](O)C(=O)Nc1cccc(C(=O)c2ccc3c(/C=C/c4ccccc4)n[nH]c3c2)c1`, the inhibition at 0.01 µM came out at 27%.

For the compound `C/C(=C\C(=O)Nc1cccc(Oc2ccc3c(/C=C/c4ccccc4)n[nH]c3c2)c1)c1ccccc1C`, the inhibition at 0.01 µM turned out to be 52%.

For `O=C1CCC(C(=O)Nc2cccc(Nc3ccc4c(/C=C/c5ccccc5)n[nH]c4c3)c2)CC1`, the inhibition at 0.01 µM is -7%.

On to `O=C(Cc1cc(F)ccc1F)Nc1cccc(Oc2ccc3c(/C=C/c4ccccc4)n[nH]c3c2)c1`, for which the inhibition at 0.01 µM worked out at 91%.

For the compound `COc1ccccc1/C=C/C(=O)Nc1cccc(C(=O)c2ccc3c(/C=C/c4ccccc4)n[nH]c3c2)c1`, the inhibition at 0.01 µM was found to be 47%.

In the case of `CN1CC(C(=O)Nc2cccc(Nc3ccc4c(/C=C/c5ccccc5)n[nH]c4c3)c2)CC1=O` (configuration not stated), the inhibition at 0.01 µM was determined as 20%.

With `C[C@@H]1[C@H](C)[C@H](C)C[C@@H]1C(=O)Nc1cccc(Oc2ccc3c(/C=C/c4ccccc4)n[nH]c3c2)c1`, the inhibition at 0.01 µM amounted to 23%.

With `CC(C)=CC1C(C(=O)Nc2cccc(Nc3ccc4c(/C=C/c5ccccc5)n[nH]c4c3)c2)C1(C)C` (configuration not stated), the inhibition at 0.01 µM was found to be 16%.

With `CCNc1ccccc1C(=O)Nc1cccc(C(=O)c2ccc3c(/C=C/c4ccccc4)n[nH]c3c2)c1`, the inhibition at 0.01 µM was found to be 54%.

As for `Cc1ccc(CCC(=O)Nc2cccc(Nc3ccc4c(/C=C/c5ccccc5)n[nH]c4c3)c2)cc1`, the inhibition at 0.01 µM worked out at 29%.

Take `O=C(Nc1cccc(Oc2ccc3c(/C=C/c4ccccc4)n[nH]c3c2)c1)C1CC2CC(O)C1C2` (configuration not stated): the inhibition at 0.01 µM turned out to be 38%.

As to `Cn1cnc(CC(=O)Nc2cccc(Oc3ccc4c(/C=C/c5ccccc5)n[nH]c4c3)c2)c1`, the inhibition at 0.01 µM is 20%.

Regarding `COC1CCCC(C(=O)Nc2cccc(Oc3ccc4c(/C=C/c5ccccc5)n[nH]c4c3)c2)C1` (configuration not stated), the inhibition at 0.01 µM was 91%.

In the case of `O=C(c1cccc(NC(=O)c2cc(=O)[nH]c(=O)[nH]2)c1)c1ccc2c(/C=C/c3ccccc3)n[nH]c2c1`, the inhibition at 0.01 µM came out at 14%.

For the compound `Cc1ccc(CCC(=O)Nc2cccc(C(=O)c3ccc4c(/C=C/c5ccccc5)n[nH]c4c3)c2)cc1`, the inhibition at 0.01 µM turned out to be 57%.

For `Cc1cc(C(=O)Nc2cccc(Nc3ccc4c(/C=C/c5ccccc5)n[nH]c4c3)c2)c(C)[nH]1`, the inhibition at 0.01 µM turned out to be 76%.

For the compound `O=C(Cc1cc(F)cc(F)c1)Nc1cccc(C(=O)c2ccc3c(/C=C/c4ccccc4)n[nH]c3c2)c1`, the inhibition at 0.01 µM came to 87%.

Consider `O=C(Cc1cccnc1)Nc1cccc(Oc2ccc3c(/C=C/c4ccccc4)n[nH]c3c2)c1`, for which the inhibition at 0.01 µM was found to be 76%.

For the compound `CC(C)(C)[C@@H](O)C(=O)Nc1cccc(Nc2ccc3c(/C=C/c4ccccc4)n[nH]c3c2)c1`, the inhibition at 0.01 µM was determined as 10%.

Consider `CC1(C)OC(=O)CC1C(=O)Nc1cccc(Nc2ccc3c(/C=C/c4ccccc4)n[nH]c3c2)c1` (configuration not stated), for which the inhibition at 0.01 µM came to 16%.

In the case of `CC1CC1C(=O)Nc1cccc(C(=O)c2ccc3c(/C=C/c4ccccc4)n[nH]c3c2)c1` (configuration not stated), the inhibition at 0.01 µM came to 96%.
